Assays:
[1] = test system: field bindweed (Convolvulus arvensis); assay: Range & Pasture Crop Testing (postemergence track sprayer); assay type: in vivo
Procedure: (§1) By applying the well-accepted probit analysis as described by J. Berkson in Journal of the […], 48, 565 (1953) and by D. Finney in “Probit Analysis” Cambridge University Press (1952), the above data can be used to calculate GR50 and GR80 values, which are defined as growth reduction factors that correspond to the effective dose of herbicide required to kill or control 50 percent or 80 percent, respectively, of a target plant.
(§2) Rates are calculated based upon 5 doses being applied. The high rate (X), followed by serial dilutions of 1/2×, 1/4×, 1/8× and 1/16×. Compound requirements are based upon the 187 L/ha carrier volume, specifications of the delivery system (Mandel track sprayer) and generating 24 mL of technical spray material to allow for the dilutions and overage in the sprayer. [formula]
(§3) All technical materials were formulated in 97:3 (acetone:DMSO) with 0.25% X-77. The total volume of solvent is maintained at less than 7%. An overhead Mandel track sprayer calibrated to deliver 187 L/ha was used for all treatment applications (postemergence). Picloram was included as a comparison treatment.
(§4) Solutions were applied with a mechanized track-sprayer at the following settings:
(§5) Spray height: 17 inches above top of plants
(§6) This provides an application volume of 187 L/ha.
(§7) Percent weed control (burn down) was evaluated 3 weeks after treatment. Visual control on a 0-100 linear scale was used, with 0 representing no control and 100 representing total control. Burn down ratings were taken for annual and perennial weed species.

[2] = test system: Canada thistle (Cirsium arvense); assay: as above; assay type: in vivo; settings: for Post-emergent Evaluation - % control CIRAR: Table 9, rate 70 g/Ha, 3 weeks after treatment
Procedure: as §1, §2, §3, §4, §5, §6, §7

[3] = test system: sicklepod (Cassia obtusifolia); assay: as above; assay type: in vivo; settings: Table 8; salts of Compound 1; dose for 80 percent control
Procedure: as §1, §2, §3, §4, §5, §6, §7

[4] = test system: pigweed (Amaranthus retroflexus); assay: Preemergence herbicidal activity; assay type: in vivo; settings: Table 6 (headed Post-emergent; text: preemergence), after 3 weeks
How it was run: (§8)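 Test compounds, dissolved in acetone/DMSO and diluted with 0.1 percent Tween 155 in water, are applied evenly to the surface of seeded soil (loam/sand, pH about 8.1) before emergence. Plants grow in the greenhouse for 3 weeks before visual rating against untreated controls on a 0-100 percent scale.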

[5] = test system: morningglory (Ipomoea hederacea); assay: Preemergence herbicidal activity; assay type: in vivo; settings: Table 6 (headed Post-emergent; text: preemergence), after 3 weeks
How it was run: as §8

[6] = test system: velvetleaf (Abutilon theophrasti); assay: Preemergence herbicidal activity; assay type: in vivo; settings: Table 6 (headed Post-emergent; text: preemergence), after 3 weeks
How it was run: as §8

[7] = test system: common ragweed (Ambrosia artemisiifolia); assay: Range & Pasture Crop Testing (postemergence track sprayer); assay type: in vivo; settings: Table 9; rate 70 g/Ha; 3 week evaluation
Procedure: as §2, §3, §4, §5, §6, §7

[8] = test system: broadleaf dock (Rumex obtusifolia); assay: as above; assay type: in vivo; settings: Table 9; rate 70 g/Ha; 3 weeks after treatment
Procedure: as §2, §3, §4, §5, §6, §7

[9] = test system: crested wheatgrass (Agropyron cristatum) (grass crop); assay: as above; assay type: in vivo; settings: Table 9, rate 70 g/Ha, 3 weeks after treatment
Procedure: as §2, §3, §4, §5, §6, §7

[10] = test system: wheat (Triticum aestivum); assay: Postemergence herbicidal activity, selectivity to wheat; assay type: in vivo; settings: Table 5; crop (wheat); rate 125 ppm
Procedure: (§9) Seeds of the desired test plant species were planted in Grace-Sierra MetroMix® 306 planting mixture, which typically has a pH of 6.0 to 6.8 and an organic matter content of about 30 percent, in plastic pots with a surface area of 64 square centimeters. When required to ensure good germination and healthy plants, a fungicide treatment and/or other chemical or physical treatment was applied. The plants were grown for 7-21 days in a greenhouse with an approximate 15 hr photoperiod which was maintained at about 23-29° C. during the day and 22-28° C. during the night. Nutrients and water were added on a regular basis and supplemental lighting was provided with overhead metal halide 1000-Watt lamps as necessary. The plants were employed for testing when they reached the first or second true leaf stage.
(§10) A weighed amount, determined by the highest rate to be tested, of each test compound was placed in a 20 mL glass vial and was dissolved in 4 mL of a 97:3 v/v (volume/volume) mixture of acetone and dimethyl sulfoxide (DMSO) to obtain concentrated stock solutions. […] The concentrated stock solutions obtained were diluted with an aqueous mixture containing acetone, water, isopropyl alcohol, DMSO, Atplus 411F crop oil concentrate, and Triton X-155 surfactant in a 48.5:39:10:1.5:1.0:0.02 v/v ratio to obtain spray solutions of known concentration. The solutions containing the highest concentration to be tested were prepared by diluting 2 mL aliquots of the stock solution with 13 mL of the mixture and lower concentrations were prepared by serial dilution of the stock solution. Approximately 1.5 mL aliquots of each solution of known concentration were sprayed evenly onto each of the test plant pots using a DeVilbiss atomizer driven by compressed air pressure of 2 to 4 psi (140 to 280 kilopascals) to obtain thorough coverage of each plant. Control plants were sprayed in the same manner with the aqueous mixture. In this test an application rate of 1 ppm results in the application of approximately 1 g/Ha.
(§11) The treated plants and control plants were placed in a greenhouse as described above and watered by sub-irrigation to prevent wash-off of the test compounds. After 2 weeks the condition of the test plants as compared with that of the untreated plants was determined visually and scored on a scale of 0 to 100 percent where 0 corresponds to no injury and 100 corresponds to complete kill.

[11] = test system: chickweed (Stellaria media); assay: Postemergence herbicidal activity; assay type: in vivo
How it was run: (§12)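 Greenhouse plants at first or second true leaf stage sprayed to coverage with compound in acetone/water/isopropanol/DMSO/crop oil/surfactant mixture; 1 ppm ≈ 1 g/Ha. Plants sub-irrigated afterward. Injury scored visually after 2 weeks versus untreated plants, 0 (none) to 100% (complete kill).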

[12] = test system: wild buckwheat (Polygonum convolvulus); assay: Postemergence herbicidal activity; assay type: in vivo
How it was run: as §12

[13] = test system: lambsquarters (Chenopodium album); assay: Postemergence herbicidal activity; assay type: in vivo; settings: Table 5; rate 125 ppm
How it was run: as §12

[14] = test system: cocklebur (Xanthium strumarium); assay: Postemergence herbicidal activity; assay type: in vivo
How it was run: as §12

[15] = test system: White Clover (Trifolium repens); assay: Range & Pasture Crop Testing (postemergence track sprayer); assay type: in vivo; settings: Table 10
Procedure: as §1, §2, §3, §4, §5, §6, §7

[16] = test system: pigweed (Amaranthus retroflexus); assay: Postemergence herbicidal activity; assay type: in vivo; settings: Table 4; rate 250 ppm
How it was run: as §12

[17] = test system: velvetleaf (Abutillon theophrasti); assay: Postemergence herbicidal activity; assay type: in vivo; settings: Table 4; rate 250 ppm
How it was run: as §12

corn (Zea mays) = assay: Postemergence herbicidal activity, selectivity to corn; assay type: in vivo; settings: Table 4; crop (corn); rate 250 ppm
Procedure: as §9
as §10, with “Approximately 1.5 mL aliquots of each solution of known concentration were sprayed evenly onto each of the test plant pots using a DeVilbiss atomizer driven by compressed air pressure of 2 to 4 psi (140 to 280 kilopascals) to obtain thorough coverage of each plant. Control plants were sprayed in the same manner with the aqueous mixture. In this test an application rate of 1 ppm results in the application of approximately 1 g/Ha.” left out
as §11

[18] = Table 1, rate 125 ppm, visual, after 2 weeks
[19] = Table 10, clover pasture, postemergence

## Nc1cc(Cl)nc(C(=O)[O-])c1Cl.[K+] [potassium salt]
[1]; Table 8, salts of Compound 1, dose for 80 percent control
  Post-emergent GR80 CONAR: 36 g/Ha
[2]; Table 8, salts of Compound 1, 3 week evaluation
  Post-emergent GR80 CIRAR: 27 g/Ha
[3]
  Post-emergent GR80 CASOB: <8.8 g/Ha

## 4-Amino-3,6-dichloro-5-methylthiopyridine-2-carboxylic acid [Compound 23]
[4]; rate 560 ppm
  % Control AMARE: 40%
[5]; rate 560 ppm
  % Control IPOHE: 0%
[6]; rate 560 ppm
  % Control ABUTH: 40%
[7]
  Post-emergent Evaluation - % control AMBEL: 85%
[8]
  Post-emergent Evaluation - % control RUMOB: 100%
[9]
  Post-emergent Evaluation - % control AGRCR: 30%
[10]
  Post-emergent Evaluation - % control TRZAS: 20%
[11]; [18]
  Post-emergent % Control STEME: 90%
[11]; Table 5, rate 125 ppm
  Post-emergent Evaluation - % control STEME: 30%
[12]; [18]
  Post-emergent % Control POLCO: 98%
[12]; Table 5, rate 125 ppm
  Post-emergent Evaluation - % control POLCO: 98%
[13]
  Post-emergent Evaluation - % control CHEAL: 90%
[14]; [18]
  Post-emergent % Control XANST: 90%
[2]
  Post-emergent Evaluation - % control CIRAR: 80%

## CC(C)OC(=O)c1nc(Cl)cc(N)c1Cl [Compound 6, i-propyl 4-amino-3,6-dichloropyridine-2-carboxylate]
[4]; Amaranthus retroflexus, 504 h, rate 280 ppm, read-out: % Control AMARE
  pest or weed control at 280 ppm: 100%
[5]; Ipomoea, 504 h, rate 280 ppm, read-out: % Control IPOHE
  pest or weed control at 280 ppm: 100%
[6]; Abutilon theophrasti, 504 h, rate 280 ppm, read-out: % Control ABUTH
  pest or weed control at 280 ppm: 100%
[7]
  Post-emergent Evaluation - % control AMBEL: 93%
[8]
  Post-emergent Evaluation - % control RUMOB: 100%
[9]
  Post-emergent Evaluation - % control AGRCR: 30%
[11]; Stellaria media, post-emergence, 336 h, Table 1, rate 125 ppm, visual, after 2 weeks, read-out: Post-emergent % Control STEME
  pest or weed control at 125 ppm: 100%
[12]; Fallopia convolvulus, post-emergence, 336 h, Table 1, rate 125 ppm, visual, after 2 weeks, read-out: Post-emergent % Control POLCO
  pest or weed control at 125 ppm: 100%
[14]; Xanthium strumarium, post-emergence, 336 h, Table 1, rate 125 ppm, visual, after 2 weeks, read-out: Post-emergent % Control XANST
  pest or weed control at 125 ppm: 100%
[1]; [19]
  GR80 CONAR: 98.8 g/ha
[2]
  Post-emergent Evaluation - % control CIRAR: 95%
[2]; [19]
  GR80 CIRAR: <17.5 g/ha
[15]
  GR20 TRFRE: 98.8 g/ha
other
  melting point: 114 to 115 °C

## Nc1c(Cl)c(C(=O)O)nc(Cl)c1Br [Compound 20, 4-Amino-3,6-dichloro-5-bromopyridine-2-carboxylic acid]
[4]; Amaranthus retroflexus, 504 h, rate 560 ppm, read-out: % Control AMARE
  pest or weed control at 560 ppm: 100%
[5]; Ipomoea, 504 h, rate 560 ppm, read-out: % Control IPOHE
  pest or weed control at 560 ppm: 100%
[6]; Abutilon theophrasti, 504 h, rate 560 ppm, read-out: % Control ABUTH
  pest or weed control at 560 ppm: 100%
[11]; Stellaria media, post-emergence, 336 h, Table 1, rate 250 ppm, visual, after 2 weeks, read-out: Post-emergent % Control STEME
  pest or weed control at 250 ppm: 90%
[16]
  Post-emergent Evaluation - % control AMARE: 90%
[17]
  Post-emergent Evaluation - % control ABUTH: 70%
[12]; Fallopia convolvulus, post-emergence, 336 h, Table 1, rate 250 ppm, visual, after 2 weeks, read-out: Post-emergent % Control POLCO
  pest or weed control at 250 ppm: 50%
[14]; Table 4, rate 250 ppm
  Post-emergent Evaluation - % control XANST: 85%
[14]; Xanthium strumarium, post-emergence, 336 h, Table 1, rate 250 ppm, visual, after 2 weeks, read-out: Post-emergent % Control XANST
  pest or weed control at 250 ppm: 85%
Corn (Zea mays)
  Post-emergent Evaluation - % control ZEAMX: 10%
other
  melting point: 201 to 202 °C
